Experimental findings from ChEMBL document CHEMBL4311946, “Mechanistic Insight on the Mode of Action of Colletoic Acid” (J Med Chem, 2019) are described below.

Data set [1] concerns Homo sapiens. Description: Anti-adipogenic activity in human subcutaneous preadipocytes assessed as decrease in lipid accumulation at 50 uM measured after 3 days under induction medium containing hydrocortisone hemi-succinate by oil red O staining-based microscopic analysis. The class given is functional, cell-based.
The test system of data set [2] is 3T3-L1. In words: Anti-adipogenic activity in differentiated mouse 3T3L1 cells assessed as reduction in PGC1alpha mRNA expression at 50 to 100 uM measured after 2 to 7 days by SYBR green dye-based qRT-PCR analysis relative to control. The class given is functional. Background: Real-time PCR tracks product formation cycle by cycle.
Data set [3] concerns Homo sapiens. Description: Anti-adipogenic activity in human subcutaneous preadipocytes assessed as reduction in pre-adipocyte differentiation into matured adipocytes at 50 uM incubated for 48 hrs under induction medium containing hydrocortisone hemi-succinate prior to compound washout followed by shifting to differentiation medium containing compound supplemented with fresh medium every 48 to 72 hrs for 9 to 14 days by oil red O staining-based microscopic analysis. The class given is functional, cell-based.

The species named for data set [4] is Homo sapiens. In words: Anti-adipogenic activity in human visceral preadipocytes assessed as reduction in pre-adipocyte differentiation into matured adipocytes at 50 uM incubated for 48 hrs under induction medium containing hydrocortisone hemi-succinate prior to compound washout followed by shifting to differentiation medium containing compound supplemented with fresh medium every 48 to 72 hrs for 9 to 14 days by oil red O staining-based microscopic analysis. The class given is functional, cell-based.

Data set [5] relates to 3T3-L1. In words: Cytotoxicity against mouse 3T3L1 preadipocytes up to 1 mM measured after 72 hrs under non-differentiating medium by celltiter-glo luminescent cell viability assay. Type of data set: cell-based. The note with it: 3t3-l1, 72 h. On the technique in general: Cellular ATP, detected with luciferase, serves as a proxy for viable cell number.

The source made the active and inactive calls. The calls are words filed in the database; no cut-off is given here.

Take `CC1=CC[C@@]2(C[C@@H]1O)[C@@H](C(=O)O)CC[C@H]2C(C)C`: the result in the data set on Homo sapiens [1] was inactive. Moreover, the “fold change (FC)” value in the data set with 3T3-L1 [2] is recorded as less than 10. Besides, the result in the data set with Homo sapiens [3] and in the data set filed under Homo sapiens [4] was Active. Also, the Activity result with 3T3-L1 [5] is listed as “Non-Toxic”.
